Data as given in patent US11459336B2, “Pyrazine carbamates and their use as GluN2B receptor modulators” (JANSSEN PHARMACEUTICA NV, priority 2019, dated 2022).

Target: T1, human GluN1/GluN2B NMDA receptors (Homo sapiens, UniProt Q13224)
T1 construct: expressed in transfected cells
Assay: Calcium flux (FLIPR) assay on cloned human GluN1/GluN2B ion channels expressed in mammalian cells, standard assay
Assay type: cell-based
Conditions: glutamate ~EC40, 10 μM glycine, stable cell line with Tet-On induced expression
Experimental: NMDA receptors are ion channels that are highly permeable to Ca^2+ ions, rendering it possible to monitor NMDA receptor function using cell-based calcium flux assay. In this assay, co-agonists glutamate and glycine are added to cells heterologously expressing human GluN1/GluN2B NMDA receptors to initiate cellular Ca^2+ influx. The time course of the changes in intracellular calcium is measured using a fluorescent dye and a FLIPR (Fluorometric Imaging Plate Reader) device.
Twenty four hours before measurements, the expression of the NMDA receptors in the stable cell line is induced with Tet-On inducible system in the presence of a non-selective NMDA receptor blocker. On the day of the experiment, cell culture media is carefully washed and the cells are loaded with Calcium 5 Dye Kit (Molecular Devices) in dye loading buffer containing 137 mM NaCl, 4 mM KCl, 2 mM CaCl2, 0.5 mM MgCl2 (standard assay) or 1.5 mM MgCl2 (HTS assay), 10 mM HEPES and 5 mM D-glucose; pH 7.4. After 1 h incubation at the room temperature, the dye is washed away with the assay buffer (137 mM NaCl (standard assay) or 150 mM (HTS assay), 4 mM KCl (standard assay) or 3 mM (HTS assay), 2 mM CaCl2, 0.01 mM EDTA, 10 mM HEPES and 5 mM D-glucose; pH 7.4) In the FLIPR TETRA reader, various concentrations of the test compounds are added to the cells for 5 min while fluorescence is monitored to detect potential agonist activity. Next, co-agonists, glutamate and glycine are added for another 5 minutes. The concentration of glutamate corresponding to ˜EC40 (standard assay) or EC40 (HTS assay) is used to maximize the assay's signal window and ability to detect NMDA receptor antagonists and negative allosteric modulators. A saturating concentration (10 μM) of glycine is also present in the assay. A non-selective NMDA receptor antagonist, (+)MK-801 is used as a positive control for antagonist activity. The fluorescent signal in the presence of test compounds is quantified and normalized to the signal defined by the appropriate control wells.

T1 sequence (Q13224 27-1484, other chains not shown): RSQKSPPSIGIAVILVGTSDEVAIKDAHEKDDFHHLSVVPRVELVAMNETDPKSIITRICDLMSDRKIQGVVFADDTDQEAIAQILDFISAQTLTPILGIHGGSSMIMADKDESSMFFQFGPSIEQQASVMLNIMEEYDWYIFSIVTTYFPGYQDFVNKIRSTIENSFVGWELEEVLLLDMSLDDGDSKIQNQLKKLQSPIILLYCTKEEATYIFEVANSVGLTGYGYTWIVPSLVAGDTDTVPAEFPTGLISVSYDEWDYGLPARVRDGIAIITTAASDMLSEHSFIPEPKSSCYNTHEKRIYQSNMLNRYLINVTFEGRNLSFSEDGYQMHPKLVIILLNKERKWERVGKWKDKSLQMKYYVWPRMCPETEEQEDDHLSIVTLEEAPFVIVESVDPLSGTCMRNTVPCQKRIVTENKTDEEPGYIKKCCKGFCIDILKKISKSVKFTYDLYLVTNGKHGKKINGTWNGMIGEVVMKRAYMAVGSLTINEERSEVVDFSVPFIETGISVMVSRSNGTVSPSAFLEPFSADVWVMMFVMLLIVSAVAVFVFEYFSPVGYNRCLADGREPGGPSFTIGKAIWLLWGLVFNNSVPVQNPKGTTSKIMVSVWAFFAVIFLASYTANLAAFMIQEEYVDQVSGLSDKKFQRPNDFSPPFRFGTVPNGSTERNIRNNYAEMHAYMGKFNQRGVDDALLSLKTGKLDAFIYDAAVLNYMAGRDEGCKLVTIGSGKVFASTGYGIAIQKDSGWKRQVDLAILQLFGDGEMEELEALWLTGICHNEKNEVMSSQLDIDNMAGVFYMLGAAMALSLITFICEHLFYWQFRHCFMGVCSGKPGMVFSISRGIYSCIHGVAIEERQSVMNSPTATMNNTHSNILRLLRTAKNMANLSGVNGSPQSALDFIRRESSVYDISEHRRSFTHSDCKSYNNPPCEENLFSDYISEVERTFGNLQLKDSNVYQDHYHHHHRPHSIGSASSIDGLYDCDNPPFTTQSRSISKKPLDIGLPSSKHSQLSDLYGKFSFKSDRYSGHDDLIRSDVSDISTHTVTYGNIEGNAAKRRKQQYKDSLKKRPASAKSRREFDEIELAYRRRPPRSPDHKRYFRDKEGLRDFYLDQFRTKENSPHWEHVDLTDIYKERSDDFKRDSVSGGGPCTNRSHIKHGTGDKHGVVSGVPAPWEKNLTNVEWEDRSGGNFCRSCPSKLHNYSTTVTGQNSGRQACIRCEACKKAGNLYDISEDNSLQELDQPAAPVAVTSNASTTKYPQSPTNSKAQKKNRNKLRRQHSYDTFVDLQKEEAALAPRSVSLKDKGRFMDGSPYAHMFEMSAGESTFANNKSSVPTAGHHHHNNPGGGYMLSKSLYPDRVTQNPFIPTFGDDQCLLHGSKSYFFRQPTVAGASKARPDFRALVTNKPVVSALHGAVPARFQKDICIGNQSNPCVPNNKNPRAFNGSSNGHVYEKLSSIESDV

SMILES | IC50
O=C1OCCN1Cc1cncc(-c2ccc(F)c(C(F)F)c2)n1 [Example 1, 3-[[6-[3-(Difluoromethyl)-4-fluoro-phenyl]pyrazin-2-yl]methyl]oxazolidin-2-one] | 195 nM
O=C1OCCN1Cc1cncc(-c2ccc(F)c(OC(F)F)c2)n1 [Example 2, 3-[[6-[3-(Difluoromethoxy)-4-fluoro-phenyl]pyrazin-2-yl]methyl]oxazolidin-2-one] | 73 nM
CC1(C)CN(Cc2cncc(-c3ccc(F)c(C(F)F)c3)n2)C(=O)O1 [Example 4, 3-[[6-[3-(Difluoromethyl)-4-fluoro-phenyl]pyrazin-2-yl]methyl]-5,5-dimethyl-oxazolidin-2-one] | 1360 nM
C[C@@H]1CN(Cc2cncc(-c3ccc(F)c(C(F)F)c3)n2)C(=O)O1 [Example 5, (5R)-3-[[6-[3-(Difluoromethyl)-4-fluoro-phenyl]pyrazin-2-yl]methyl]-5-methyl-oxazolidin-2-one] | 29 nM
C[C@H]1CN(Cc2cncc(-c3ccc(F)c(C(F)F)c3)n2)C(=O)O1 [Example 6, (5S)-3-[[6-[3-(Difluoromethyl)-4-fluoro-phenyl]pyrazin-2-yl]methyl]-5-methyl-oxazolidin-2-one] | 60 nM
C[C@@H]1COC(=O)N1Cc1cncc(-c2ccc(F)c(C(F)F)c2)n1 [Example 7, (4R)-3-[[6-[3-(Difluoromethyl)-4-fluoro-phenyl]pyrazin-2-yl]methyl]-4-methyl-oxazolidin-2-one] | 288 nM
O=C1OCCCN1Cc1cncc(-c2ccc(F)c(C(F)F)c2)n1 [Example 9, 3-[[6-[3-(Difluoromethyl)-4-fluoro-phenyl]pyrazin-2-yl]methyl]-1,3-oxazinan-2-one] | 65 nM
Cc1ncc(-c2ccc(F)c(C(F)F)c2)nc1CN1CC2(CC2)OC1=O [Example 10, 5-[[6-[3-(Difluoromethyl)-4-fluoro-phenyl]-3-methyl-pyrazin-2-yl]methyl]-7-oxa-5-azaspiro[2.4]heptan-6-one] | 37 nM
Cc1ncc(-c2ccc(F)c(C(F)F)c2)nc1CN1C(=O)OC[C@@H]1C [Example 12, (4S)-3-[[6-[3-(Difluoromethyl)-4-fluoro-phenyl]-3-methyl-pyrazin-2-yl]methyl]-4-methyl-oxazolidin-2-one] | 605 nM
Cc1ncc(-c2ccc(F)c(C(F)F)c2)nc1CN1C[C@@H](C)OC1=O [Example 13, (5R)-3-[[6-[3-(Difluoromethyl)-4-fluoro-phenyl]-3-methyl-pyrazin-2-yl]methyl]-5-methyl-oxazolidin-2-one] | 45 nM
Cc1ncc(-c2ccc(F)c(C(F)F)c2)nc1CN1C[C@H](C)OC1=O [Example 14, (5S)-3-[[6-[3-(Difluoromethyl)-4-fluoro-phenyl]-3-methyl-pyrazin-2-yl]methyl]-5-methyl-oxazolidin-2-one] | 50 nM
O=C1OC2(CC2)CN1Cc1cncc(-c2ccc(F)c(OC(F)F)c2)n1 [Example 16, 5-[[6-[3-(Difluoromethoxy)-4-fluoro-phenyl]pyrazin-2-yl]methyl]-7-oxa-5-azaspiro[2.4]heptan-6-one] | 19 nM
CC1(C)CN(Cc2cncc(-c3ccc(F)c(OC(F)F)c3)n2)C(=O)O1 [Example 17, 3-[[6-[3-(Difluoromethoxy)-4-fluoro-phenyl]pyrazin-2-yl]methyl]-5,5-dimethyl-oxazolidin-2-one] | 1140 nM
C[C@@H]1COC(=O)N1Cc1cncc(-c2ccc(F)c(OC(F)F)c2)n1 [Example 18, (4R)-3-[[6-[3-(Difluoromethoxy)-4-fluoro-phenyl]pyrazin-2-yl]methyl]-4-methyl-oxazolidin-2-one] | 44 nM
C[C@H]1COC(=O)N1Cc1cncc(-c2ccc(F)c(OC(F)F)c2)n1 [Example 19, (4S)-3-[[6-[3-(Difluoromethoxy)-4-fluoro-phenyl]pyrazin-2-yl]methyl]-4-methyl-oxazolidin-2-one] | 291 nM
C[C@@H]1CN(Cc2cncc(-c3ccc(F)c(OC(F)F)c3)n2)C(=O)O1 [Example 20, (5R)-3-[[6-[3-(Difluoromethoxy)-4-fluoro-phenyl]pyrazin-2-yl]methyl]-5-methyl-oxazolidin-2-one] | 29 nM
C[C@H]1CN(Cc2cncc(-c3ccc(F)c(OC(F)F)c3)n2)C(=O)O1 [Example 21, (5S)-3-[[6-[3-(Difluoromethoxy)-4-fluoro-phenyl]pyrazin-2-yl]methyl]-5-methyl-oxazolidin-2-one] | 20 nM

SMILES | IC50
O=C1OCCCN1Cc1cncc(-c2ccc(F)c(OC(F)F)c2)n1 [Example 22, 3-[[6-[3-(Difluoromethoxy)-4-fluoro-phenyl]pyrazin-2-yl]methyl]-1,3-oxazinan-2-one] | 17 nM
Cc1ncc(-c2ccc(F)c(OC(F)F)c2)nc1CN1CC2(CC2)OC1=O [Example 23, 5-[[6-[3-(Difluoromethoxy)-4-fluoro-phenyl]-3-methyl-pyrazin-2-yl]methyl]-7-oxa-5-azaspiro[2.4]heptan-6-one] | 66 nM
Cc1ncc(-c2ccc(F)c(OC(F)F)c2)nc1CN1C(=O)OC[C@H]1C [Example 24, (4R)-3-[[6-[3-(Difluoromethoxy)-4-fluoro-phenyl]-3-methyl-pyrazin-2-yl]methyl]-4-methyl-oxazolidin-2-one] | 78 nM
Cc1ncc(-c2ccc(F)c(OC(F)F)c2)nc1CN1C(=O)OC[C@@H]1C [Example 25, (4S)-3-[[6-[3-(Difluoromethoxy)-4-fluoro-phenyl]-3-methyl-pyrazin-2-yl]methyl]-4-methyl-oxazolidin-2-one] | 388 nM
Cc1ncc(-c2ccc(F)c(OC(F)F)c2)nc1CN1C[C@@H](C)OC1=O [Example 26, (5R)-3-[[6-[3-(Difluoromethoxy)-4-fluoro-phenyl]-3-methyl-pyrazin-2-yl]methyl]-5-methyl-oxazolidin-2-one] | 52 nM
Cc1ncc(-c2ccc(F)c(OC(F)F)c2)nc1CN1C[C@H](C)OC1=O [Example 27, (5S)-3-[[6-[3-(Difluoromethoxy)-4-fluoro-phenyl]-3-methyl-pyrazin-2-yl]methyl]-5-methyl-oxazolidin-2-one] | 48 nM
Cc1ncc(-c2ccc(F)c(OC(F)F)c2)nc1CN1CCCOC1=O [Example 28, 3-[[6-[3-(Difluoromethoxy)-4-fluoro-phenyl]-3-methyl-pyrazin-2-yl]methyl]-1,3-oxazinan-2-one] | 39 nM
O=C1OC2(CC2)CN1Cc1cncc(-c2ccc(Cl)c(OC(F)F)c2)n1 [Example 29, 5-[[6-[4-Chloro-3-(difluoromethoxy)phenyl]pyrazin-2-yl]methyl]-7-oxa-5-azaspiro[2.4]heptan-6-one] | 19 nM
CC1(C)CN(Cc2cncc(-c3ccc(Cl)c(OC(F)F)c3)n2)C(=O)O1 [Example 30, 3-[[6-[4-Chloro-3-(difluoromethoxy)phenyl]pyrazin-2-yl]methyl]-5,5-dimethyl-oxazolidin-2-one] | 669 nM
C[C@@H]1CN(Cc2cncc(-c3ccc(Cl)c(OC(F)F)c3)n2)C(=O)O1 [Example 31, (5R)-3-[[6-[4-Chloro-3-(difluoromethoxy)phenyl]pyrazin-2-yl]methyl]-5-methyl-oxazolidin-2-one] | 20 nM
C[C@H]1CN(Cc2cncc(-c3ccc(Cl)c(OC(F)F)c3)n2)C(=O)O1 [Example 32, (5S)-3-[[6-[4-Chloro-3-(difluoromethoxy)phenyl]pyrazin-2-yl]methyl]-5-methyl-oxazolidin-2-one] | 20 nM
C[C@@H]1COC(=O)N1Cc1cncc(-c2ccc(Cl)c(OC(F)F)c2)n1 [Example 33, (4R)-3-[[6-[4-Chloro-3-(difluoromethoxy)phenyl]pyrazin-2-yl]methyl]-4-methyl-oxazolidin-2-one] | 21 nM
C[C@H]1COC(=O)N1Cc1cncc(-c2ccc(Cl)c(OC(F)F)c2)n1 [Example 34, (4S)-3-[[6-[4-Chloro-3-(difluoromethoxy)phenyl]pyrazin-2-yl]methyl]-4-methyl-oxazolidin-2-one] | 86 nM
O=C1OCCCN1Cc1cncc(-c2ccc(Cl)c(OC(F)F)c2)n1 [Example 35, 3-[[6-[4-Chloro-3-(difluoromethoxy)phenyl]pyrazin-2-yl]methyl]-1,3-oxazinan-2-one] | 13 nM
Cc1ncc(-c2ccc(Cl)c(OC(F)F)c2)nc1CN1CC2(CC2)OC1=O [Example 36, 5-[[6-[4-Chloro-3-(difluoromethoxy)phenyl]-3-methyl-pyrazin-2-yl]methyl]-7-oxa-5-azaspiro[2.4]heptan-6-one] | 113 nM
Cc1ncc(-c2ccc(Cl)c(OC(F)F)c2)nc1CN1CCCOC1=O [Example 37, 3-[[6-[4-Chloro-3-(difluoromethoxy)phenyl]-3-methyl-pyrazin-2-yl]methyl]-1,3-oxazinan-2-one] | 18 nM
CC(F)(F)c1cccc(-c2cncc(CN3CC4(CC4)OC3=O)n2)c1 [Example 38, 5-[[6-[3-(1,1-Difluoroethyl)phenyl]pyrazin-2-yl]methyl]-7-oxa-5-azaspiro[2.4]heptan-6-one] | 17 nM
